Experimental data published in patent EP0021678B1, “1-Sulpho-2-oxoazetidine derivatives, their production and pharmaceutical compositions thereof” (Takeda Chemical Industries, Ltd., priority 1979, dated 1981).
Read-outs that look alike come from different tables or passages of the source.

How the values were obtained:
Experiment in all cases: Anti-bacterial test, minimum inhibitory concentration on agar
Type in all cases: cell-based
[1] = tested on: Acinetobacter calcoaceticus IFO 13006
Excerpt: (§1) The compound (I) thus obtained is useful as a drug, being active against certain gram-positive and gram-negative bacteria. By way of example, the compounds are active against the following micro-organisms.
(§2) The media and compounds employed in the anti-bacterial test are as follows: • Media: • TSA = Trypticase soy agar • [Baltimore Biologicals (U.S.A.)] • B-TSA = Blood trypticase soy agar • Compounds: • Compound A = Sodium 3-[2-(2-amino-4-thiazolyl)-2-methoxyiminoacetamido]-2-oxo-azetidine-1-sulphonate • Compound B = Sodium 3-[D(-)-N-(4-ethyl-2,3-dioxo-1-piperazinocarbonyl)-phenyl-glycin- amido]-2-oxoazetidine-1-sulphonate • Compound C = Sodium 3-[D(-)-N-(4-ethyl-2,3-dioxo-1-piperazinocarbonyl)phenylglycinamido]-3-methoxy-2-oxoazetidine-1-sulphonate • Compound D = Sodium 3-[2-(4-ethyl-2,3-dioxo-1-piperazinocarboxamido)-2-(2-amino-4-thiazolyl)-acetamido]-2-oxoazetidine-1-sulphonate • Compound E = Sodium 3-[DL-2-(4-ethyl-2,3-dioxo-1-piperazinocarboxamido)-2-thienylacetamido]-2-oxoazetidine-1-sulphonate • Compound F = Sodium 3-[D-2-(4-ethyl-2,3-dioxo-1-piperazinocarboxamido)-2-thienylacetamido]-2-oxoazetidine-1-sulphonate • Compound G = Sodium 3-[D-2-(4-n-octyl-2,3-dioxo-1-piperazinocarboxamido)-2-phenylacetamido]-2-oxoazetidine-1-sulphonate • Compound H = Sodium 3-[2-(4-n-octyl-2,3-dioxo-1-piperazinocarboxamido)-2-(2-amino-4-thiazolyl)-acetamido]-2-oxoazetidine-1-sulphonate • Compound I = Sodium 3-[D-2-[(2-oxo-3-furfurylideneaminoimidazolidin-1-yl)-carboxamido]-2-phenylacetamido]-2-oxoazetidine-1-sulphonate • Compound J = Sodium 3-[2-(4-n-octyl-2,3-dioxo-1-piperazinocarboxamido)-2-thienylacetamido]-2-oxoazetidine-1-sulphonate • Compound K = Sodium 3-[D-2-[[2-oxo-3-(thiophen-2-aidoimino)-imidazolidin-1-yl]-carboxamido]-2-phenylacetamido]-2-oxoazetidine-1-sulphonate • Compound L = Sodium 3-[2-[(2-oxo-3-furfurylideneaminoimidazolidin-1-yl)-carboxamido]-2-thienylacetamido]-2-oxoazetidine-1-sulphonate

[2] = tested on: Bordetella bronchiseptica Sagami; conditions: read-out: Minimum inhibitory concentration
Excerpt: as §1, §2

Candida albicans TA = conditions: read-out: Minimum inhibitory concentration
Excerpt: as §1, §2

[3] = tested on: Citrobacter freundii IFO 12681
Excerpt: as §1, §2

[4] = tested on: Corynebacterium diphtheriae Toronto; conditions: read-out: Minimum inhibitory concentration
Excerpt: as §1, §2

[5] = tested on: Enterobacter cloacae IFO 12937
Excerpt: as §1, §2

[6] = tested on: Escherichia coli NIHJ JC—2; conditions: read-out: Minimum inhibitory concentration
Excerpt: as §1, §2

Escherichia coli O—111 = conditions: medium TSA
Excerpt: as §1, §2

Escherichia coli T-7 = conditions: T7, medium TSA
Excerpt: as §1, §2

Klebsiella pneumoniae DT = conditions: read-out: Minimum inhibitory concentration
Excerpt: as §1, §2

[7] = tested on: Proteus mirabilis IFO 3849
Excerpt: as §1, §2

[8] = tested on: Proteus morganii IFO 3168; conditions: Morganella morganii
Excerpt: as §1, §2

[9] = tested on: Proteus vulgaris IFO 3988
Excerpt: as §1, §2

[10] = tested on: Pseudomonas aeruginosa IFO 3455
Excerpt: as §1, §2

[11] = tested on: Pseudomonas aeruginosa U 31
Excerpt: as §1, §2

[12] = tested on: Serratia marcescens IFO 12648
Excerpt: as §1, §2

[13] = tested on: Staphylococcus aureus 1840
Excerpt: as §1, §2

[14] = tested on: Staphylococcus aureus 308A—1; conditions: read-out: Minimum inhibitory concentration
Excerpt: as §1, §2

[15] = tested on: Staphylococcus aureus FDA209P; conditions: for MIC: Staphylococcus aureus, FDA209P, read-out: Minimum inhibitory concentration
Excerpt: as §1, §2

[16] = tested on: Streptococcus faecium IFO 3128; conditions: Enterococcus faecium
Excerpt: as §1, §2

[17] = tested on: Streptococcus mitis America; conditions: read-out: Minimum inhibitory concentration
Excerpt: as §1, §2

[18] = tested on: Streptococcus pneumoniae Type I; conditions: read-out: Minimum inhibitory concentration
Excerpt: as §1, §2

[19] = tested on: Streptococcus pyogenes E—14; conditions: read-out: Minimum inhibitory concentration
Excerpt: as §1, §2

[20] = tested on: Streptococcus pyogenes S—8; conditions: read-out: Minimum inhibitory concentration
Excerpt: as §1, §2

[21] = Pseudomonas aeruginosa, IFO3455, read-out: Minimum inhibitory concentration
[22] = Staphylococcus aureus FDA209P, medium B—TSA
[23] = IFO13006, Acinetobacter calcoaceticus IFO 13006, medium TSA, read-out: Minimum inhibitory concentration
[24] = Bordetella bronchiseptica Sagami, medium B—TSA
[25] = Candida albicans TA, medium TSA
[26] = IFO12681, Citrobacter freundii IFO 12681, medium TSA, read-out: Minimum inhibitory concentration
[27] = Corynebacterium diphtheriae Toronto, medium B—TSA
[28] = IFO12937, Enterobacter cloacae IFO 12937, medium TSA, read-out: Minimum inhibitory concentration
[29] = Escherichia coli NIHJ JC—2, medium TSA
[30] = Klebsiella pneumoniae DT, medium TSA
[31] = IFO3849, Proteus mirabilis IFO 3849, medium TSA, read-out: Minimum inhibitory concentration
[32] = IFO3168, Proteus morganii IFO 3168, medium TSA, read-out: Minimum inhibitory concentration
[33] = IFO3988, Proteus vulgaris IFO 3988, medium TSA, read-out: Minimum inhibitory concentration
[34] = IFO3455, Pseudomonas aeruginosa IFO 3455, medium TSA, read-out: Minimum inhibitory concentration
[35] = U31, Pseudomonas aeruginosa U 31, medium TSA, read-out: Minimum inhibitory concentration
[36] = IFO12648, Serratia marcescens IFO 12648, medium TSA, read-out: Minimum inhibitory concentration
[37] = Staphylococcus aureus 1840, medium TSA, read-out: Minimum inhibitory concentration
[38] = Staphylococcus aureus 308A—1, medium TSA
[39] = Staphylococcus aureus FDA209P, medium TSA
[40] = IFO3128, Streptococcus faecium IFO 3128, medium B—TSA, read-out: Minimum inhibitory concentration
[41] = Streptococcus mitis America, medium B—TSA
[42] = Streptococcus pneumoniae Type I, medium B—TSA
[43] = Streptococcus pyogenes E—14, medium B—TSA
[44] = Streptococcus pyogenes S—8, medium B—TSA

CON=C(C(=O)NC1CN(S(=O)(=O)[O-])C1=O)c1csc(N)n1.[Na+] (stereo not shown) [Compound A, Sodium 3-[2-(2-amino-4-thiazolyl)-2-methoxyiminoacetamido]-2-oxo-azetidine-1-sulphonate]
MIC ([1]; Acinetobacter calcoaceticus, IFO13006, read-out: Minimum inhibitory concentration): 6.25 µg/mL | MIC ([2]; Bordetella bronchiseptica): 100 µg/mL | MIC (Candida albicans TA; Candida albicans): > 100 µg/mL | MIC ([3]; Citrobacter freundii, IFO12681, read-out: Minimum inhibitory concentration): 1.56 µg/mL | MIC ([4]; Corynebacterium diphtheriae): 1.56 µg/mL | MIC ([5]; Enterobacter cloacae, IFO12937, read-out: Minimum inhibitory concentration): > 100 µg/mL | MIC ([6]; Escherichia coli): 0.78 µg/mL | MIC (Escherichia coli O—111): 0.39 µg/mL | MIC (Escherichia coli T-7): > 100 µg/mL | MIC (Klebsiella pneumoniae DT; Klebsiella pneumoniae): 0.78 µg/mL | MIC ([7]; Proteus mirabilis, IFO3849, read-out: Minimum inhibitory concentration): 6.25 µg/mL | MIC ([8]; IFO3168, read-out: Minimum inhibitory concentration): 25 µg/mL | MIC ([9]; Proteus vulgaris, IFO3988, read-out: Minimum inhibitory concentration): 1.56 µg/mL | MIC [10, 21]: 6.25 µg/mL | MIC ([11]; Pseudomonas aeruginosa, U31, read-out: Minimum inhibitory concentration): > 100 µg/mL | MIC ([12]; Serratia marcescens, IFO12648, read-out: Minimum inhibitory concentration): 12.5 µg/mL | MIC ([13]; Staphylococcus aureus, 1840, read-out: Minimum inhibitory concentration): 100 µg/mL | MIC ([14]; Staphylococcus aureus): 25 µg/mL | Minimum inhibitory concentration [15, 22]: 50 µg/mL | MIC [15]: 50 µg/mL | MIC ([16]; IFO3128, read-out: Minimum inhibitory concentration): > 100 µg/mL | MIC ([17]; Streptococcus mitis): 25 µg/mL | MIC ([18]; Streptococcus pneumoniae): 12.5 µg/mL | MIC ([19]; Streptococcus pyogenes): 3.13 µg/mL | MIC ([20]; Streptococcus pyogenes): 3.13 µg/mL

CCN1CCN(C(=O)N[C@@H](C(=O)NC2CN(S(=O)(=O)O)C2=O)c2ccccc2)C(=O)C1=O (single isomer, unassigned) [Compound B, Sodium 3-[D(-)-N-(4-ethyl-2,3-dioxo-1-piperazinocarbonyl)-phenyl-glycin-amido]-2-oxoazetidine-1-sulphonate]
MIC [1, 23]: 25 µg/mL | MIC [2, 24]: > 100 µg/mL | MIC (Candida albicans TA; [25]): > 100 µg/mL | MIC [3, 26]: 6.25 µg/mL | MIC [4, 27]: 3.13 µg/mL | MIC [5, 28]: 50 µg/mL | MIC [6, 29]: 1.56 µg/mL | MIC (Escherichia coli O—111): 0.2 µg/mL | MIC (Escherichia coli T-7): > 100 µg/mL | MIC (Klebsiella pneumoniae DT; [30]): 0.2 µg/mL | MIC [7, 31]: 0.78 µg/mL | MIC [8, 32]: 25 µg/mL | MIC [9, 33]: 0.1 µg/mL | MIC [10, 34]: 1.56 µg/mL | MIC [11, 35]: > 100 µg/mL | MIC [12, 36]: 3.13 µg/mL | MIC [13, 37]: 25 µg/mL | MIC [14, 38]: 3.13 µg/mL | MIC [15, 22]: 6.25 µg/mL | MIC [15, 39]: 6.25 µg/mL | MIC [16, 40]: > 100 µg/mL | MIC [17, 41]: 25 µg/mL | MIC [18, 42]: 6.25 µg/mL | MIC [19, 43]: 3.13 µg/mL | MIC [20, 44]: 6.25 µg/mL

O=C(NC1CN(S(=O)(=O)O)C1=O)[C@H](NC(=O)N1CCN(N=Cc2ccco2)C1=O)c1ccccc1 (stereo partly drawn) [Compound I, Sodium 3-[D-2-[(2-oxo-3-furfurylideneaminoimidazolidin-1-yl)-carboxamido]-2-phenylacetamido]-2-oxoazetidine-1-sulphonate]
MIC [1, 23]: 25 µg/mL | MIC [2, 24]: > 100 µg/mL | MIC (Candida albicans TA; [25]): > 100 µg/mL | MIC [3, 26]: 6.25 µg/mL | MIC [4, 27]: 0.78 µg/mL | MIC [5, 28]: 25 µg/mL | MIC [6, 29]: 1.56 µg/mL | MIC (Escherichia coli O—111): 3.13 µg/mL | MIC (Escherichia coli T-7): > 100 µg/mL | MIC (Klebsiella pneumoniae DT; [30]): 0.2 µg/mL | MIC [7, 31]: 1.56 µg/mL | MIC [8, 32]: 12.5 µg/mL | MIC [9, 33]: 0.2 µg/mL | MIC [10, 21]: 3.13 µg/mL | MIC [11, 35]: > 100 µg/mL | MIC [12, 36]: 1.56 µg/mL | MIC [13, 37]: 50 µg/mL | MIC ([14]; Staphylococcus aureus): 3.13 µg/mL | MIC [15, 22]: 6.25 µg/mL | MIC [15, 39]: 6.25 µg/mL | MIC [16, 40]: > 100 µg/mL | MIC ([17]; Streptococcus mitis): 3.13 µg/mL | MIC [18, 42]: 1.56 µg/mL | MIC [19, 43]: 0.39 µg/mL | MIC [20, 44]: 0.78 µg/mL

CCN1CCN(C(=O)NC(C(=O)NC2CN(S(=O)(=O)O)C2=O)c2csc(N)n2)C(=O)C1=O (stereo not shown) [Compound D, Sodium 3-[2-(4-ethyl-2,3-dioxo-1-piperazinocarboxamido)-2-(2-amino-4-thiazolyl)-acetamido]-2-oxoazetidine-1-sulphonate]
MIC [1, 23]: 50 µg/mL | MIC [2, 24]: > 100 µg/mL | MIC (Candida albicans TA; [25]): > 100 µg/mL | MIC [3, 26]: 1.56 µg/mL | MIC [4, 27]: 3.13 µg/mL | MIC [5, 28]: 25 µg/mL | MIC [6, 29]: 0.39 µg/mL | MIC (Escherichia coli O—111): 0.1 µg/mL | MIC (Escherichia coli T-7): > 100 µg/mL | MIC (Klebsiella pneumoniae DT; [30]): 0.2 µg/mL | MIC [7, 31]: 25 µg/mL | MIC [8, 32]: 12.5 µg/mL | MIC [9, 33]: 0.1 µg/mL | MIC [10, 34]: 3.13 µg/mL | MIC [11, 35]: > 100 µg/mL | MIC [12, 36]: 0.78 µg/mL | MIC [13, 37]: 25 µg/mL | MIC [14, 38]: 6.25 µg/mL | MIC [15, 22]: 12.5 µg/mL | MIC [15, 39]: 12.5 µg/mL | MIC [16, 40]: > 100 µg/mL | MIC [17, 41]: 25 µg/mL | MIC [18, 42]: 6.25 µg/mL | MIC [19, 43]: 3.13 µg/mL | MIC [20, 44]: 3.13 µg/mL
